Counter-ions that a name gives are not always drawn. Like-named read-outs stand apart in the source and are kept apart here.
Columns and labels:
[1] = target: T1, recombinant human B1 receptors (Homo sapiens, UniProt P46663); assay: Functional assay: cytosolic calcium ion concentration measured with plate reader fluorimeter in CHO-B1 cells, agonist LysDABK; format: cell-based
T1 construct: host or cells: CHO (CHO-B1)
T1 sequence (P46663 1-353): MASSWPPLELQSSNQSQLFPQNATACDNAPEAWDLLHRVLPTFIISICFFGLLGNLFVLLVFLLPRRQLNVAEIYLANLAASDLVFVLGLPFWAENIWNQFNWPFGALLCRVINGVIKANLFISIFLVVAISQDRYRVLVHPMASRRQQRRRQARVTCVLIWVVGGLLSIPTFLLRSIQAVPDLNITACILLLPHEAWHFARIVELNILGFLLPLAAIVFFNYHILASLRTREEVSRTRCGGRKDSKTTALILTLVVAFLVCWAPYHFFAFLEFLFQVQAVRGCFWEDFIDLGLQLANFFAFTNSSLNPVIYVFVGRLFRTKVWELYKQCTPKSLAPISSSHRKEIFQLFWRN
Experimental: Assessment of Antagonist Potency at B1 and B2 Receptors In Vitro by Measurement of Cytosolic Calcium Ion Concentration with a Plate Reader Fluorimeter in Cells Expressing Recombinant Human B1 or B2 Receptors
Chinese hamster ovary (CHO) cells stably expressing recombinant human B1 (CHO-B1, Euroscreen) or B2 (CHO-B2, Perkin-Elmer) receptors were cultured in Dulbecco's Modified Eagle's Medium (DMEM) containing 10% Fetal Calf Serum (FCS), 100 U/ml penicillin, 0.1 mg/ml streptomycin, 0.25 μg/ml amphotericin B, 1% Minimum Essential Medium Eagle (MEM), non essential amino acid solution, 600 μg/ml G418, 1% pyruvate (for the B2 cell line). Cells were kept at 37° C. in a humidified incubator in an atmosphere of 5% CO2/95% air and were passaged 1:4 three times a week. Cells were plated at 1.5-2.5×10^4 cell/well on standard 96-well microplates, measurements of cytosolic calcium ion concentration ([Ca^2+]i) were carried out 1-2 days after cell plating.
Measurements of [Ca^2+]i were carried out on CHO-B1 and CHO-B2 cells stably expressing human B1 and B2 receptors, respectively. Cells were grown in standard 96-well microplates and before the measurement were loaded with a fluorescent Ca^2+-sensitive dye, fluo-4/AM (2 μM): after removing the culture medium the dye was added to the cells (dissolved in assay buffer: 145 mM NaCl, 5 mM KCl, 2 mM MgCl2, 2 mM CaCl2, 10 mM HEPES, 20 mM D-glucose, 2 mM probenecid, 100 μl/well) and cells were incubated at 37° C. in a humidified incubator in an atmosphere of 5% CO2/95% air for 40-120 min. To stop dye loading cells were washed twice with assay buffer. After washing, various concentrations of the test compounds (diluted in extracellular medium from a DMSO stock solution, final DMSO concentration was <0.1%) or buffer were added to each well depending on the experimental setup. After incubation at 37° C. for 20-25 min. baseline and agonist-evoked changes of [Ca^2+]i were measured column by column with a plate reader fluorimeter (Fluoroskan Ascent, Labsystems). Excitation and detection of emission was carried out from the bottom of the plate. Filters used for Fluo-4: excitation filter—485 nm, emission filter—538 nm. The whole measurement process was performed at 37° C. and was controlled by custom software. Inhibitory potency of the test compounds was assessed by measuring the reduction in the agonist-evoked [Ca^2]i-elevation in the presence of different concentrations of the compounds. The agonists were LysDABK for CHO-B1, and bradykinin for CHO-B2 cells. Agonists were applied at an EC80 concentration, the EC80-values were derived from daily determined dose-response curves. Fluorescence data were expressed as ΔF/F (fluorescence change normalized to baseline). All treatments on a single plate were measured in multiple wells. Data from all wells with the same treatment were averaged and the average values were used for analysis. Inhibitory potency of a compound at a single concentration point was expressed as percent inhibition of the control agonist response. Sigmoidal concentration-inhibition curves were fitted to the data (derived from at least three independent experiments) and IC50-values were determined as the concentration that produces half of the maximal inhibition caused by the compound.

[2] = target: T2, human recombinant bradykinin B1 receptor (Homo sapiens, UniProt P46663); assay: Human recombinant bradykinin B1 receptor binding
T2 construct: purchased Euroscreen ES-091; host or cells: CHO cells
T2 sequence (P46663 1-353): T1 sequence (P46663 1-353)
Experimental: 1. Human Recombinant Bradykinin B1 Receptor Binding
Binding assays were carried out on human recombinant bradykinin) receptors (expressed in CHO cells) according to the Euroscreen Technical Data Sheet (Cat.No.:ES-091). 20 μg protein/tube was incubated with [3,4-prolyl-3,4-^3H(N)]-[Des-Arg^10] Kallidin as radioligand. Non specific binding was determined in the presence of 10 μM Lys-des-Arg^9-Bradykinin. The final incubation volume was 250 μl. Samples were incubated for 15 min. at 25° C. then were rapidly vacuum filtered through GF/B filters presoaked for at least 1 h in 0.5% PEI. Radioactivity was determined by liquid scintillation spectroscopy.

[3] = CHO-B1 cells, LysDABK at EC80, [Ca2+]i, read-out: B1 func.
[4] = radioligand [3H]-[Des-Arg10] Kallidin, CHO cell membranes, read-out: B1 binding
[5] = reference compounds, functional test, read-out: IC50
[6] = reference compounds, binding test, read-out: Ki

Row | SMILES | IC50 [1, 3] [µM] | Ki [2, 4] [µM] | IC50 [1, 5] [µM] | Ki [2, 6] [µM]
1 | O=C(N[C@H]1CC[C@H](CCN2CCCC2)CC1)c1ccc(S(=O)(=O)Nc2ccccc2Oc2ccc(Cl)cc2Cl)cc1 [Example 9, trans-4-[2-(2,4-Dichloro-phenoxy)-phenylsulfamoyl]-N-[4-(2-pyrrolidin-1-ylethyl)-cyclohexyl]-benzamide] | 0.02 to 0.1 | < 0.02 |  | 
2 | O=C(CCNC(=O)c1ccc(S(=O)(=O)Nc2ccccc2Oc2ccc(Cl)cc2Cl)cc1)NCC1CCNCC1 [Example 37, 4-[2-(2,4-Dichloro-phenoxy)-phenylsulfamoyl]-N-{2-[(piperidin-4-ylmethyl)-carbamoyl]-ethyl}-benzamide acetate/hydrochloride mixed salt] | 0.02 to 0.1 | 0.02 to 0.1 |  | 
3 | CN1CCN(C(=O)C2CCN(S(=O)(=O)c3ccc(NCC(c4ccccc4)c4ccccc4)c(C(=O)N4CCOCC4)c3)CC2)CC1 [NVP-SAA164, 4-{2-[(2,2-diphenyl-ethyl)-amino]-5-{4-[4-[(4-methyl-1-piperazinyl)-carbonyl]-1-piperidinyl]-sulfonyl}-benzoyl}-morfoline, reference compound] |  |  | 0.033 | 0.008
4 | O=C(NCCCN1CCC(N2CCCCC2)CC1)c1ccc(S(=O)(=O)Nc2ccccc2Oc2ccc(C(F)(F)F)cc2)cc1 [Example 129, N-(3-[1,4′]Bipiperidinyl-1′-yl-propyl)-4-[2-(4-trifluoromethyl-phenoxy)-phenylsulfamoyl]-benzamide] | 0.02 to 0.1 | 0.02 to 0.1 |  | 
5 | O=C(NCCNC(=O)C1CCNCC1)c1ccc(S(=O)(=O)Nc2ccccc2Oc2ccc(Cl)cc2Cl)cc1 [Example 29, Piperidine-4-carboxylic acid (2-{4-[2-(2,4-dichloro-phenoxy)-phenylsulfamoyl]-benzoylamino}-ethyl)-amide hydrochloride] | 0.02 to 0.1 | 0.02 to 0.1 |  | 
6 | O=C(NCCCN1CCN(c2ccncc2)CC1)c1ccc(S(=O)(=O)Nc2ccccc2Oc2ccc(Br)cc2)cc1 [Example 114, 4-[2-(4-Bromo-phenoxy)-phenylsulfamoyl]-N-[3-(4-pyridin-4-yl-piperazin-1-yl)-propyl]-benzamide] | < 0.02 | < 0.02 |  | 
7 | O=C(NCCCN1CCN(c2ccncc2)CC1)c1ccc(S(=O)(=O)Nc2cc(F)ccc2Oc2ccc(Br)cc2)cc1 [Example 105, 4-[2-(4-Bromo-phenoxy)-5-fluoro-phenylsulfamoyl]-N-[3-(4-pyridin-4-yl-piperazin-1-yl)-propyl]-benzamide] | < 0.02 | < 0.02 |  | 
8 | CCCN1C(=O)[C@H](NC(=O)Nc2ccc(N3CCN(c4ccncc4)CC3)cc2)N=C(CCc2ccccc2)c2ccccc21 [compound 2, (R)—N-[2,3-dihydro-2-oxo-5-(2-phenyl-ethyl)-1-propyl-1H-1,4-benzodiazepin-3-yl]-N′-{4-[4-(4-pyridinyl)-1-piperazinyl]-phenyl}-urea, reference compound] |  |  | 0.0019 | 0.00059
9 | Cc1ccnc(N2CCN(CCNC(=O)c3ccc(S(=O)(=O)Nc4ccccc4Oc4ccc(Cl)cc4Cl)cc3)CC2)c1 [Example 54, 4-[2-(2,4-Dichloro-phenoxy)-phenylsulfamoyl]-N-{2-[4-(4-methyl-pyridin-2-yl)-piperazin-1-yl]-ethyl}-benzamide] | 0.02 to 0.1 | 0.02 to 0.1 |  | 
10 | O=C(CCNC(=O)c1ccc(S(=O)(=O)Nc2ccccc2Oc2ccc(Cl)cc2Cl)cc1)NC1CCNCC1 [Example 33, 4-[2-(2,4-Dichloro-phenoxy)-phenylsulfamoyl]-N-[2-(piperidin-4-ylcarbamoyl)-ethyl]-benzamide acetate] | 0.02 to 0.1 | 0.02 to 0.1 |  | 
11 | COc1ccc(Oc2ccccc2NS(=O)(=O)c2ccc(C(=O)NCCCN3CCC(N4CCCCC4)CC3)cc2)c(Cl)c1 [Example 147, N-(3-[1,4′]Bipiperidinyl-1′-yl-propyl)-4-[2-(2-chloro-4-methoxy-phenoxy)-phenylsulfamoyl]-benzamide] | 0.02 to 0.1 | 0.02 to 0.1 |  | 
12 | O=C(NCCc1ccc(C2=NCCN2)cc1)c1ccc(S(=O)(=O)Nc2ccccc2Oc2ccc(Br)cc2)cc1 [Example 7, 4-[2-(4-Bromo-phenoxy)-phenylsulfamoyl]-N-{2-[4-(4,5-dihydro-4H-imidazol-2-yl)-phenyl]-ethyl}-benzamide] | < 0.02 | < 0.02 |  | 

Reference: patent US20100075978A1, “SULFONAMIDE DERIVATIVES AS BRADYKININ ANTAGONISTS” (priority 2006, published 2010)
